Measurements: US20110269942A1, “ANTIBODIES MODIFIED WITH HYDROPHOBIC MOLECULE” (DAIICHI SANKYO COMPANY, LIMITED, priority 2007, published 2011)
Each block holds one molecule with its values, some of them ahead of it.

Assays:
[1] = molecular target: human DR5 (death receptor 5) (human) (UniProt O14763); experiment: cell-based or functional assay
Jurkat cells = experiment: Apoptosis-inducing activity of hydrophobic molecule-modified antibodies against Jurkat cells (cell viability from ATP level; method of Test Example 13); format: cell-based, human; settings: 72 hr
BxPC-3 cells = experiment: Apoptosis-inducing activity of hydrophobic molecule-modified antibodies against BxPC-3 cells (cell viability from ATP level); format: cell-based, human
[2] = test system: human colon cancer strain COLO 205; experiment: Antitumor activity against human colon cancer strain COLO 205-transplanted nude mice (tumor volume, rate of tumor growth); format: in vivo, nude mice BALB/cA Jcl-nu; settings: 0.33 mg/ml, 0.1 ml per 10 g body weight i.v., Days 8, 11, 13, 15, 18, 20, 22, 25, 27
Method: The in-vivo antitumor activity of the immunoliposome prepared in Example 5 was studied. 2×10^6 cells of a human colon cancer strain COLO 205 (purchased from American Type Culture Collection) which was confirmed by quarantine to have no detectable mouse pathogenic microorganisms were hypodermically transplanted to the axillary region of nude mice BALB/cA Jcl-nu (CLEA Japan, Inc.). The immunoliposome of Example 5 was diluted, immediately before its administration, with saline (Otsuka Pharmaceutical Co., Ltd.) to 1 and 0.33 mg/ml in terms of antibody concentrations. Seven days after the transplantation, the administration of the immunoliposome of Example 5 to COLO 205 cancer-bearing mice in which the tumor successfully grafted was started. […]
The major axis and minor axis of the transplanted tumor were measured two to three times a week using an electronic vernier caliper (CD-15C; Mitutoyo Corp.). The tumor volume was determined according to the following calculation formula:
Tumor volume (mm^3)=½×minor axis^2 (mm)×major axis (mm).
Moreover, the rate of tumor growth (mm^3/day) of each individual was calculated, and the statistically significant difference was tested by a Dunnett test using the value. In this context, a P value less than 0.05 was regarded as being a significant difference among groups. […]

[3] = test system: human malignant melanoma cell strain A375 cells; experiment: Apoptosis-inducing activity of immunoliposomes against A375 cells (cell viability from ATP level); format: cell-based; settings: antibody not conjugated to an immunoliposome
Method: (§1) Jurkat cells were counted by a trypan blue staining method, and the concentration was then adjusted to 1×10^5 cells/ml with a DMEM medium (manufactured by Invitrogen Corp.; hereinafter, referred to as a DMEM medium) containing 10% fetal calf serum (manufactured by Hyclone Laboratories, Inc.). […] To this microplate, the cell suspension was inoculated in an amount of 50 μl (5×10^3 cells)/well. The plate was cultured at 37° C. for 72 hr in the presence of 5% carbon dioxide, and the ATP level of each well was measured. […] Then, the supernatant was transferred in an amount of 100 μl/well to a 96-well white microplate (manufactured by Corning Inc.), and luminescence from each well was measured using a luminometer (manufactured by Molecular Devices Corp.). […] The cell viability of each well was calculated according to the following equation:
(§2) Cell viability (%)=(Luminescence intensity of test wells−Average luminescence intensity of background wells)/(Average luminescence intensity of negative control wells−Average luminescence intensity of background wells)×100.
The apoptosis-inducing activities against human malignant melanoma cell strain A375 cells were measured according to the method described in Test Example 1.

[4] = test system: human malignant melanoma cell strain A2058 cells; experiment: Apoptosis-inducing activity of immunoliposomes against A2058 cells (cell viability from ATP level); format: cell-based; settings: antibody not conjugated to an immunoliposome
Method: as §1, §2
The apoptosis-inducing activities against human malignant melanoma cell strain A2058 cells were measured according to the method described in Test Example 1.

human Fas = molecular target: T1, human Fas (human, UniProt P25445 26-335); experiment: cell-based or functional assay
T1 sequence (looked up): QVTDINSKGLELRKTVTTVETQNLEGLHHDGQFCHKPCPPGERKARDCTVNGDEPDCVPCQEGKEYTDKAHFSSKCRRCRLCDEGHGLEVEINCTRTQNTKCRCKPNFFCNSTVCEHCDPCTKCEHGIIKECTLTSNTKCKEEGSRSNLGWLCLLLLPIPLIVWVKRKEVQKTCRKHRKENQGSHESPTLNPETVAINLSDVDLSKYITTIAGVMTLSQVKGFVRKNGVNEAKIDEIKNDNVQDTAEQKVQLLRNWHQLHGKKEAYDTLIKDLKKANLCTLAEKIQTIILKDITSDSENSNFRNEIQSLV

Molecule: DSPE-PEG2000-modified MAB631 Fullbody of Example 49 (antibody)
EC50 (concentration exhibiting 50% cell viability), Jurkat cells, Test Example 20 [1]: 0.025 ng/mL
cell viability (Jurkat cells) [1]: < 10%
EC50 relative to Ab, Jurkat cells, Test Example 20 ([1]; scale: fold): 58.4

Molecule: Example 32: DSPE-PEG2000-modified hTRA-8 Fab′ (Cys), reaction ratio 1:4
apoptosis-inducing activity compared with that of secondary antibody-cross-linked hTRA-8 (Jurkat cells): stronger

Molecule: Example 33: DSPE-PEG2000-modified hTRA-8 Fullbody (Lys), reaction ratio 1:1
apoptosis-inducing activity compared with that of secondary antibody-cross-linked hTRA-8 (Jurkat cells): stronger

Molecule: Example 34: DSPE-PEG2000-modified hTRA-8 Fullbody (Lys), reaction ratio 1:4
apoptosis-inducing activity compared with that of secondary antibody-cross-linked hTRA-8 (Jurkat cells): stronger

Molecule: Example 35: DSPE-PEG2000-modified hTRA-8 Fullbody (Lys), reaction ratio 1:12
apoptosis-inducing activity compared with that of secondary antibody-cross-linked hTRA-8 (Jurkat cells): stronger

Molecule: Example 36: DSPE-PEG2000-modified hTRA-8 Fullbody (Cys), reaction ratio 1:10
apoptosis-inducing activity compared with that of secondary antibody-cross-linked hTRA-8 (Jurkat cells): stronger

Molecule: Example 37: DSPE-PEG2000-modified hTRA-8 Fab′ (Cys), reaction ratio 1:1
apoptosis-inducing activity compared with that of secondary antibody-cross-linked hTRA-8 (Jurkat cells): equivalent to or stronger
apoptosis-inducing activity compared with that of secondary antibody-cross-linked hTRA-8 (BxPC-3 cells): stronger

Molecule: Example 38: DSPE-PEG10000-modified hTRA-8 Fab′ (Cys)
apoptosis-inducing activity compared with that of secondary antibody-cross-linked hTRA-8 (Jurkat cells): equivalent to or stronger

Molecule: Example 39: DPPE-PEG2000-modified hTRA-8 Fab′ (Cys)
apoptosis-inducing activity compared with that of secondary antibody-cross-linked hTRA-8 (Jurkat cells): equivalent to or stronger

Molecule: Example 40: Chol-PEG5000-modified hTRA-8 Fab′ (Cys)
apoptosis-inducing activity compared with that of secondary antibody-cross-linked hTRA-8 (Jurkat cells): equivalent to or stronger

Molecule: Example 41: DSPE-PEG10000-modified hTRA-8 Fullbody (Lys)
apoptosis-inducing activity compared with that of secondary antibody-cross-linked hTRA-8 (Jurkat cells): stronger

Molecule: Example 42: DPPE-PEG2000-modified hTRA-8 Fullbody (Lys)
apoptosis-inducing activity compared with that of secondary antibody-cross-linked hTRA-8 (Jurkat cells): stronger

Molecule: Example 43: Chol-PEG5000-modified hTRA-8 Fullbody (Lys)
apoptosis-inducing activity compared with that of secondary antibody-cross-linked hTRA-8 (Jurkat cells): stronger

Molecule: Example 45: DSPE-PEG3400-modified hTRA-8 Fullbody (Lys)
apoptosis-inducing activity compared with that of secondary antibody-cross-linked hTRA-8 (Jurkat cells): stronger

Molecule: Example 46: DSPE-PEG5000-modified hTRA-8 Fullbody (Lys), reaction ratio 1:2
apoptosis-inducing activity compared with that of secondary antibody-cross-linked hTRA-8 (Jurkat cells): stronger
apoptosis-inducing activity compared with that of secondary antibody-cross-linked hTRA-8 (BxPC-3 cells): stronger

Molecule: Example 47: DSPE-PEG2000-modified hTRA-8 Fullbody (Lys), reaction ratio 1:1, large scale
antitumor activity (rate of tumor growth, Dunnett test) [2]: antitumor activity with a statistically significant difference

Molecule: Example 48: DSPE-PEG2000-modified hTRA-8 F(ab′)2 (Lys)
apoptosis-inducing activity compared with that of secondary antibody-cross-linked hTRA-8 (BxPC-3 cells): stronger

Molecule: Example 52: PEG2000-modified hTRA-8 Fullbody (Lys), hydrophobic molecule-free, water-soluble linker-modified antibody
apoptosis-inducing activity (in words) (BxPC-3 cells; 1000, 100, 10, or 1 ng/ml): weak

Molecule: Example 53: PEG5000-modified hTRA-8 Fullbody (Lys), hydrophobic molecule-free, water-soluble linker-modified antibody
apoptosis-inducing activity (in words) (BxPC-3 cells; 1000, 100, 10, or 1 ng/ml): weak

Molecule: Example 54: PEG2000-modified hTRA-8 Fab′ (Cys), hydrophobic molecule-free, water-soluble linker-modified antibody
apoptosis-inducing activity (in words) (BxPC-3 cells; 1000, 100, 10, or 1 ng/ml): weak

Molecule: hTRA-8 F(ab′)2 fragment: F(ab′)2 fragment obtained by pepsin digestion of hTRA-8
apoptosis-inducing activity (in words) (BxPC-3 cells; 1000, 100, 10, or 1 ng/ml): hardly exhibited an apoptosis-inducing activity

Molecule: hTRA-8 Fab′ fragment: Fab′ obtained by reducing hTRA-8 F(ab′)2 with DTT
apoptosis-inducing activity (in words) (BxPC-3 cells; 1000, 100, 10, or 1 ng/ml): hardly exhibited an apoptosis-inducing activity

Molecule: hTRA-8: antibody obtained by humanizing mouse anti-human DR5 antibody TRA-8; heavy chain SEQ ID NO: 1, light chain SEQ ID NO: 2
apoptosis-inducing activity (in words) [3]: weak
apoptosis-inducing activity (in words) [4]: weak
apoptosis-inducing activity (in words) (BxPC-3 cells; uncross-linked with secondary antibody): weak

EC50 relative to Ab, Jurkat cells, Test Example 21 (human Fas): > 144 fold (control antibody EC50 / modified antibody EC50)
B1: DSPE-PEG2000-modified hHFE7A Fullbody of Example 50 (antibody, human IgG1, kappa, V domains shown)
VH: QVQLVQSGAEVKKPGASVKVSCKASGYTFTSYWMQWVKQAPGQGLEWMGEIDPSDSYTNYNQKFKGKATLTVDTSTSTAYMELSSLRSEDTAVYYCARNRDYSNNWYFDVWGEGTLVTVSS
VL: EIVLTQSPGTLSLSPGERATLSCKASQSVDYDGDSYMNWYQQKPGQAPRLLIYAASNLESGIPDRFSGSGSGTDFTLTISRLEPEDFAVYYCQQSNEDPRTFGQGTKLEIKR
modifications: DSPE-PEG2000 on thiolated Lys (residue and chain not specified)
EC50 (concentration exhibiting 50% cell viability), Jurkat cells, Test Example 21 (human Fas): 6.94 ng/mL

Cross-linked Antibody EC50, Jurkat cells, Test Example 21 (human Fas): > 1000 ng/mL
B2: anti-human Fas antibody hHFE7A (humanized HFE7A), Fullbody (antibody, human IgG1, kappa, V domains shown)
VH: QVQLVQSGAEVKKPGASVKVSCKASGYTFTSYWMQWVKQAPGQGLEWMGEIDPSDSYTNYNQKFKGKATLTVDTSTSTAYMELSSLRSEDTAVYYCARNRDYSNNWYFDVWGEGTLVTVSS
VL: EIVLTQSPGTLSLSPGERATLSCKASQSVDYDGDSYMNWYQQKPGQAPRLLIYAASNLESGIPDRFSGSGSGTDFTLTISRLEPEDFAVYYCQQSNEDPRTFGQGTKLEIKR
